# Tests used:
# [1] = Radioligand integrity by thin-layer chromatography; type: physicochemical; settings: over a period of 48 h
# Experimental: The PSMA ligands used in this study were synthesized using solid-phase chemistry methods as previously reported. The labeling of the PSMA ligands with actinium-225 was performed at ITM Medical Isotopes GmbH, Munich, Germany (Supplementary Material: Section S1). The radioligands (~50 kBq/nmol; ~0.5 MBq/mL) were shipped to the Paul Scherrer Institute (PSI) overnight followed by assessing their integrity using thin-layer chromatography. […] Depending on the experiment, the molar activity of the radioligands was adjusted by adding unlabeled ligand and the final formulation was prepared by adding vehicle (saline with 0.05% bovine serum albumin (BSA)) to obtain the desired activity concentration. Radiolabeling of SibuDAB with lutetium-177 (5–10 MBq/nmol) was performed as previously reported.
# [2] = test system: PC3-PIP/flu tumor-bearing mice; test: Biodistribution studies; type: in vivo, BALB/c nude mice
smiles,measurement,setting,value
O=C([O-])CN1CCN(CC(=O)[O-])CCN(CC(=O)NCC2CCC(C(=O)NC(Cc3ccc4ccccc4c3)C(=O)NCCCCC(NC(=O)NC(CCC(=O)O)C(=O)O)C(=O)O)CC2)CCN(CC(=O)[O-])CC1.[225Ac+3] (centres unmarked) [[^225Ac]Ac-PSMA-617],intact radioligand,[1],> 99%
same,"Blood, accumulated activity",[2]; 1 h p.i.,0.62 ± 0.12 % IA/g
same,"Bone, accumulated activity",[2]; 1 h p.i.,0.46 ± 0.13 % IA/g
same,"Heart, accumulated activity",[2]; 1 h p.i.,0.35 ± 0.09 % IA/g
same,"Intestines, accumulated activity",[2]; 1 h p.i.,0.29 ± 0.12 % IA/g
same,"Kidneys, accumulated activity",[2]; 1 h p.i.,12 ± 3 % IA/g
same,"Liver, accumulated activity",[2]; 1 h p.i.,0.46 ± 0.10 % IA/g
same,"Lung, accumulated activity",[2]; 1 h p.i.,0.76 ± 0.23 % IA/g
same,"Muscle, accumulated activity",[2]; 1 h p.i.,0.18 ± 0.06 % IA/g
same,"PC-3 PIP tumor, accumulated activity",[2]; 1 h p.i.,46 ± 13 % IA/g
same,"PC-3 flu tumor, accumulated activity",[2]; 1 h p.i.,0.30 ± 0.06 % IA/g
same,"Salivary glands, accumulated activity",[2]; 1 h p.i.,0.30 ± 0.06 % IA/g
same,"Spleen, accumulated activity",[2]; 1 h p.i.,0.68 ± 0.09 % IA/g
same,"Stomach, accumulated activity",[2]; 1 h p.i.,0.37 ± 0.14 % IA/g
same,Tumor-to-blood ratio,[2]; 1 h p.i.,73 ± 7
same,Tumor-to-kidney ratio,[2]; 1 h p.i.,3.7 ± 0.3
same,Tumor-to-liver ratio,[2]; 1 h p.i.,99 ± 8
same,"Blood, accumulated activity",[2]; 4 h p.i.,≤ 0.10 % IA/g
same,"Bone, accumulated activity",[2]; 4 h p.i.,0.14 ± 0.04 % IA/g
same,"Heart, accumulated activity",[2]; 4 h p.i.,≤ 0.10 % IA/g
same,"Intestines, accumulated activity",[2]; 4 h p.i.,≤ 0.10 % IA/g
same,"Kidneys, accumulated activity",[2]; 4 h p.i.,3.5 ± 0.6 % IA/g
same,"Liver, accumulated activity",[2]; 4 h p.i.,0.31 ± 0.04 % IA/g
same,"Lung, accumulated activity",[2]; 4 h p.i.,≤ 0.10 % IA/g
same,"Muscle, accumulated activity",[2]; 4 h p.i.,≤ 0.10 % IA/g
same,"PC-3 PIP tumor, accumulated activity",[2]; 4 h p.i.,43 ± 10 % IA/g
same,"PC-3 flu tumor, accumulated activity",[2]; 4 h p.i.,0.11 ± 0.02 % IA/g
same,"Salivary glands, accumulated activity",[2]; 4 h p.i.,≤ 0.10 % IA/g
same,"Spleen, accumulated activity",[2]; 4 h p.i.,0.12 ± 0.05 % IA/g
same,"Stomach, accumulated activity",[2]; 4 h p.i.,≤ 0.10 % IA/g
same,Tumor-to-blood ratio,[2]; 4 h p.i.,2593 ± 825
same,Tumor-to-kidney ratio,[2]; 4 h p.i.,13 ± 4
same,Tumor-to-liver ratio,[2]; 4 h p.i.,142 ± 23
same,"Blood, accumulated activity",[2]; 24 h p.i.,≤ 0.10 % IA/g
same,"Bone, accumulated activity",[2]; 24 h p.i.,0.11 ± 0.01 % IA/g
same,"Heart, accumulated activity",[2]; 24 h p.i.,≤ 0.10 % IA/g
same,"Intestines, accumulated activity",[2]; 24 h p.i.,≤ 0.10 % IA/g
same,"Kidneys, accumulated activity",[2]; 24 h p.i.,1.2 ± 0.2 % IA/g
same,"Liver, accumulated activity",[2]; 24 h p.i.,0.39 ± 0.06 % IA/g
same,"Lung, accumulated activity",[2]; 24 h p.i.,≤ 0.10 % IA/g
same,"Muscle, accumulated activity",[2]; 24 h p.i.,≤ 0.10 % IA/g
same,"PC-3 PIP tumor, accumulated activity",[2]; 24 h p.i.,37 ± 9 % IA/g
same,"PC-3 flu tumor, accumulated activity",[2]; 24 h p.i.,0.11 ± 0.08 % IA/g
same,"Salivary glands, accumulated activity",[2]; 24 h p.i.,≤ 0.10 % IA/g
same,"Spleen, accumulated activity",[2]; 24 h p.i.,0.13 ± 0.04 % IA/g
same,"Stomach, accumulated activity",[2]; 24 h p.i.,≤ 0.10 % IA/g
same,Tumor-to-blood ratio,[2]; 24 h p.i.,4991 ± 3208
same,Tumor-to-kidney ratio,[2]; 24 h p.i.,33 ± 9
same,Tumor-to-liver ratio,[2]; 24 h p.i.,97 ± 20
same,"Blood, accumulated activity",[2]; 48 h p.i.,≤ 0.10 % IA/g
same,"Bone, accumulated activity",[2]; 48 h p.i.,0.12 ± 0.04 % IA/g
same,"Heart, accumulated activity",[2]; 48 h p.i.,≤ 0.10 % IA/g
same,"Intestines, accumulated activity",[2]; 48 h p.i.,≤ 0.10 % IA/g
same,"Kidneys, accumulated activity",[2]; 48 h p.i.,0.79 ± 0.13 % IA/g
same,"Liver, accumulated activity",[2]; 48 h p.i.,0.44 ± 0.16 % IA/g
same,"Lung, accumulated activity",[2]; 48 h p.i.,≤ 0.10 % IA/g
same,"Muscle, accumulated activity",[2]; 48 h p.i.,≤ 0.10 % IA/g
same,"PC-3 PIP tumor, accumulated activity",[2]; 48 h p.i.,31 ± 3 % IA/g
same,"PC-3 flu tumor, accumulated activity",[2]; 48 h p.i.,0.26 ± 0.4 % IA/g
same,"Salivary glands, accumulated activity",[2]; 48 h p.i.,≤ 0.10 % IA/g
same,"Spleen, accumulated activity",[2]; 48 h p.i.,0.13 ± 0.02 % IA/g
same,"Stomach, accumulated activity",[2]; 48 h p.i.,≤ 0.10 % IA/g
same,Tumor-to-blood ratio,[2]; 48 h p.i.,1716 ± 860
same,Tumor-to-kidney ratio,[2]; 48 h p.i.,37 ± 6
same,Tumor-to-liver ratio,[2]; 48 h p.i.,68 ± 15
